The text below walks through data of patent US6924400B2, “Triaromatic vitamin D analogues” (Galderma Research & Development, SNC, priority 2001, dated 2005).

The subject of experiment [1] is HL60 cells. In words: Activity on the differentiation of HL60 cells (NBT reduction). The conditions noted are these: for AC50: Homo sapiens, HL-60, 96 h, HL60 cells, culturing for 4 days, NBT-positive cells counted; for differentiation-inducing activity on HL60 cells compared with calcitriol: comparison in words. The format is cell-based. The source says: The biological properties analogous to vitamin D may also be measured by means of the capacity of the product to induce the differentiation of promyelocytic leukemia cells HL60. The protocol and also the results obtained with the compounds according to the invention are described in Example 8 of the present patent application.
Calcitrol induces the differentiation of promyelocytic leukaemia cells (HL60) into monocytes/macrophages. This differentiation-inductive effect is a well-characterized marker of cellular vitamin D. One of the most important antimicrobial products of macrophages is hydrogen peroxide, which may be analysed experimentally by the reduction of NBT (Nitroblue Tetrazolium).
The method used is as follows: the HL60 cells are inoculated into 6-well plates and then treated immediately with a test compound. After culturing for 4 days, the cells are incubated with phorbol TPA ester and NBT for a short period and the differentiated cells, i.e., the ones that are positive to NBT, are counted.

In experiment [2] the test system is normal human keratinocytes. In words: Activity on the proliferation of human keratinocytes (BrdU incorporation). The conditions noted are these: for IC50: Homo sapiens, Keratinocyte, 120 h, read-out: IC50-proliferation of KHNs. For orientation: Dividing cells build labelled thymidine or BrdU into new DNA.
Protocol: The biological properties analogous to vitamin D may also be measured by means of the capacity of the product to inhibit the proliferation of normal human keratinocytes (NHK in culture). The product is added to NHKs cultured under conditions promoting the proliferative state. The product is left in contact with the cells for five days. The number of proliferative cells is measured by incorporation of bromodeoxyuridine (BRdU) into the DNA.
The method used is as follows: normal human keratinocytes are inoculated at low density into a 24-well plate. After 4 hours, the test compounds are added to the culture medium. After culturing for 5 days, the proliferation of the keratinocytes is determined by incorporating 5-bromo-2′-deoxyuridine (BrdU) into the DNA. The amount of BrdU incorporated is then measured using the ELISA test (Enzyme Linked ImmunoSorbent Assay, sold by Roche Molecular Biochemicals).
For experiment [3], the target named is T1, human VDR receptor (Homo sapiens, UniProt P11473).
T1 construct: expressed in transfected cells; host or cells: HeLa
T1 sequence (P11473 1-427): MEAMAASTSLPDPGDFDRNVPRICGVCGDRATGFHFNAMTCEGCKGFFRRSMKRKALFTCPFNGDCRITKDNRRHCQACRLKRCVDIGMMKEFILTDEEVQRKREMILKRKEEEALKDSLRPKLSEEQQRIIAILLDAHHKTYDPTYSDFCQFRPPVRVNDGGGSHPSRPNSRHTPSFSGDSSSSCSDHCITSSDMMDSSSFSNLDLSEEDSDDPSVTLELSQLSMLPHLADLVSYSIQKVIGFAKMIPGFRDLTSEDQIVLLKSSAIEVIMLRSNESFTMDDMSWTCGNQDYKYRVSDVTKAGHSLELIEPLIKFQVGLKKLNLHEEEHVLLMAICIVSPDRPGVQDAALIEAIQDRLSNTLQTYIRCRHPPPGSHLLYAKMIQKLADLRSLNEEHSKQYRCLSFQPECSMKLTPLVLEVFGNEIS
Nature of the experiment: VDR agonist activity, HeLa cotransfection with reporter plasmid p240Hase-CAT. The format is cell-based. The conditions noted are these: for AC50: HeLa cells, treatment for 18 hours, CAT activity by ELISA; for VDR agonist activity compared with calcitriol: comparison in words. The method, then: By way of example, the VDR agonist activity may be tested on the HeLa cell line by cotransfection of an expression vector of the human VDR receptor and of the reporter plasmid p240Hase-CAT. The agonist activity may also be characterized in this cotransfection system, by determining the dose required to achieve 50% of the maximum activity of the product (AC50).
18 hours after cotransfection, the test compound is added to the medium. After treatment for 18 hours, the CAT activity of the cell lysates is assayed by means of an ELISA test (Enzyme Linked ImmunoSorbent Assay, sold by Roche Molecular Biochemicals).

Each structure is given as a SMILES string.

Turning to `C=C1/C(=C\C=C2/CCC[C@]3(C)[C@@H]([C@H](C)CCCC(C)(C)O)CC[C@@H]23)C[C@@H](O)C[C@@H]1O` [Calcitriol, 1,25-dihydroxyvitamin D3, reference compound], the activity in experiment [1] was half-maximal at 0.0107 µM (AC50).
As to `CCCc1cc(C(O)(CC)CC)ccc1-c1cc(OCc2ccc(CO)c(CO)c2)ccc1C` [Example 1, {5-[4′-(1-Ethyl-1-hydroxypropyl)-6-methyl-2′-propylbiphenyl-3-yloxy-methyl]-2-hydroxymethylphenyl}methanol], the IC50 in experiment [2] was 0.016 µM. The figures for the AC50 in experiment [3] and in experiment [1] were 0.0024 µM and 0.0076 µM, respectively.
On the same counts, the results for `CCc1cc(C(O)(CC)CC)ccc1-c1cc(OCc2ccc(CO)c(CO)c2)ccc1CC` [Example 2, {5-[6,2′-Diethyl-4′-(1-ethyl-1-hydroxypropyl)biphenyl-3-yloxymethyl]-2-hydroxymethylphenyl}methanol] are 0.053 µM, 0.0041 µM and 0.015 µM.
For `CCCc1cc(C(O)(CC)CC)ccc1-c1cc(OCc2ccc(CO)c(CO)c2)ccc1CC` [Example 3, {4-[6-Ethyl-4′-(1-ethyl-1-hydroxypropyl)-2′-propylbiphenyl-3-yloxymethyl]-2-hydroxymethylphenyl}methanol], in that order: 0.015 µM, 0.0022 µM and 0.011 µM.
As to `CCc1ccc(OCc2ccc(CO)c(CO)c2)cc1-c1ccc(C(O)(CC)CC)cc1C(C)C` [Example 4, {4-[6-Ethyl-4′-(1-ethyl-1-hydroxypropyl)-2′-isopropylbiphenyl-3-yloxymethyl]-2-hydroxymethylphenyl}methanol], in experiment [2], the IC50 was 0.026 µM. Moreover, the AC50 – broadly, the concentration giving half of the maximal activity seen – came to 0.0032 µM in experiment [3] and 0.027 µM in experiment [1].
With `CCCc1cc(C(O)(CC)CC)ccc1-c1cc(CCc2ccc(CO)c(CO)c2)ccc1C` [Example 5, (4-{2-[4′-(1-Ethyl-1-hydroxypropyl)-6-methyl-2′-propylbiphenyl-3-yl]ethyl}-2-hydroxymethylphenyl)methanol], the IC50 in experiment [2] was found to be 0.0024 µM. Further, the “activity on keratinocyte proliferation relative to calcitriol” value in experiment [2] (fold greater than calcitriol) is “more than 5 times”. In experiment [3], the AC50 amounted to 0.0006 µM and the “VDR agonist activity compared with calcitriol” value is “superior activity”. Moreover, in experiment [1], the activity was half-maximal at 0.0018 µM (AC50) and the “differentiation-inducing activity on HL60 cells compared with calcitriol” value is “markedly superior activity”.
For `CCC(O)(CC)c1ccc(-c2cc(NCc3ccc(CO)c(CO)c3)ccc2C)c(C)c1` [Example 6, (4-{[4′-(1-Ethyl-1-hydroxypropyl)-6,2′-dimethylbiphenyl-3-ylamino]-methyl}-2-hydroxymethylphenyl)methanol], the IC50 in experiment [2] came out at 0.122 µM. For the same compound, the “inhibitory activity on keratinocyte proliferation compared with calcitriol” value in experiment [2] (comparison in words) is listed as “less good activity compared with calcitriol”. Moreover, in experiment [3], the activity was half-maximal at 0.05 µM (AC50) and the “VDR agonist activity compared with calcitriol” value is listed as “less good activity compared with calcitriol”. Further, in experiment [1], the AC50 was 0.147 µM and the “differentiation-inducing activity on HL60 cells compared with calcitriol” value is “less good activity compared with calcitriol”.
